Assay results taken from EP2902035B1, “Cell-permeable peptide inhibitors of the JNK signal transduction pathway for use in the treatment of inflammatory eye diseases” (Xigen Inflammation Ltd., priority 2010, dated 2012).

Assays:
[1] = system: polymorphonuclear cells (PMN); experiment: Quantification of infiltrating polymorphonuclear cells on histological sections in EIU; format: in vivo, Lewis rats; details: at 24 hours, mean ± SEM
Method: For immunohistochemistry, eyeballs were collected and fixed for 1h at room temperature in phosphate buffered saline (PBS) containing 4% paraformaldehyde before being rinsed overnight in PBS. The next day, samples were embedded and frozen in optimal cutting-temperature (OCT) compound (Tissue-Tek®, Sakura Finetek, Zoeterwoude, Netherland) and stored at -80°C. Frozen antero-posterior sections of eyes (10 µm thick) were performed at the optic nerve level using a cryostat (Leica CM 3050S, Rueil-Malmaison, France) and mounted on super-frost slides for immunohistochemical analysis.
A second set of experiment was designed to evaluate the anti-inflammatory effect of the JNK-inhibitor (poly-)peptide of SEQ ID NO: 11 at the cellular and tissue level as well as the biodistribution of this molecule 24 hours after administration. Rats were randomized into 11 experimental groups. 6 groups of rats with uveitis: untreated uveitic rats, rats injected intravenously with NaCl or the JNK-inhibitor (poly-)peptide of SEQ ID NO: 11 and rats injected intravitreously with the vehicle, the JNK-inhibitor (poly-)peptide of SEQ ID NO: 11 or dexamethasone. The 5 additional groups without uveitis were: untreated healthy rats, rats treated by NaCl IV or the JNK-inhibitor (poly-)peptide of SEQ ID NO: 11 IV and rats injected IVT with NaCl or the JNK-inhibitor (poly-)peptide of SEQ ID NO: 11. Three eyes from separate rats were collected per group and used for immunohistochemistry.
To characterize the cellular infiltrate, sections were double-stained with ED1 and iNOS. […] After staining nuclei with DAPI (Sigma-Aldrich, Saint-Quentin Fallavier, France), sections were mounted in PBS/Glycerol (1/1) and observed by fluorescence photomicroscopy (FXA, Microphot, Nikon, Melville, USA). […] ED1 positive cells and polymorphonuclear cells, identified by the shape of their nuclei stained with DAPI, were quantified on histological sections. […] Results were expressed as mean ± standard error of the mean (SEM).

[2] = system: c-Jun phosphorylation (JNK pathway); experiment: Western-Blot analysis of c-Jun phosphorylation in RPE/choroid in EIU; format: in vivo, Lewis rats; details: for relative band intensity for phospho c-Jun in comparison to tubulin (densitometry): EIU
Method: Retinas and RPE/choroid/sclera complexes were carefully dissected out on enucleated eyes, snap frozen and stored at -80°C until being used for RT-PCR and Western-Blot analyses.
Retinas and RPE/choroid/sclera complexes were also collected at 24 hours to analyze iNOS mRNA levels by RT-PCR and c-Jun phosphorylation state by Western-Blot. Tissues were collected only from eyes treated by IV (intravenous) injection of vehicle, IV injection of the JNK-inhibitor (poly-)peptide of SEQ ID NO: 11, IVT (intravitreal) injection of vehicle and IVT injection of the JNK-inhibitor (poly-)peptide of SEQ ID NO: 11 (n=2 eyes per condition collected from separate rats). Eyes were selected so that their EIU clinical score was representative of the mean of the experimental group they belong to, i.e 3 for eyes treated by IV and IVT injection of vehicle and 2 for eyes treated by IV or IVT injection of the JNK-inhibitor (poly-)peptide of SEQ ID NO: 11.
RPE/choroid/sclera complexes and neuroretinas (2 per experimental group) were snap frozen immediately after dissection and stored at -80°C until use. Tissues were homogenized in 500 µL of lysis buffer (MOPS SDS Running Buffer, Invitrogen, Cergy-Pontoise, France) supplemented with protease inhibitor cocktail (Roche Diagnostics, Meylan, France) (one tablet for 50 mL). After addition of LDS Sample Buffer (Invitrogen) and heating for 5 min at 100°C, equal amounts of proteins were subjected to electrophoresis in a NuPAGE 4-12% Bis-Tris gel (Invitrogen) using MOPS SDS Running Buffer. The bands obtained were then electrotransferred onto nitrocellulose membranes (Schleicher & Schuell BioScience, Dassel, Germany).
Western-blot analyses were carried out to analyze the effect of the JNK-inhibitor (poly-)peptide of SEQ ID NO: 11 on the three mitogen-activated protein kinase (MAPK) pathways. To analyze the JNK pathway, blots were sequentially incubated with a rabbit Phospho-c-Jun (Ser63) primary antibody (or Phospho-c-Jun (Ser73) antibody) and an anti-rabbit IgG HRP-linked secondary antibody according to the manufacturer's instruction (PhosphoPlus c-Jun (Ser63) II and c-Jun (Ser73) antibody kit (9260) purchased from Cell Signaling Technology (Ozyme, St Quentin Yvelines, France)). Bands were visualized using the ECL Western Blotting Detection Reagents Kit (Amersham Biosciences, Orsay, France). […] The relative band intensity for phospho c-Jun (Ser 63 or Ser73) was calculated in comparison to that for -tubulin after densitometry analysis (ImageJ software).

CC(C)C[C@@H](NC(=O)[C@@H](Cc1ccccc1)NC(=O)[C@H]1CCCN1C(=O)[C@@H](CCC(N)=O)NC(=O)[C@H](NC(=O)[C@H]1CCCN1C(=O)[C@@H](CCCNC(=N)N)NC(=O)[C@@H](CO)NC(=O)[C@@H](CCC(N)=O)NC(=O)[C@H](N)CC(=O)O)C(C)C)C(=O)N[C@H](CC(N)=O)C(=O)N[C@H](CC(C)C)C(=O)N[C@@H](C(=O)N[C@@H](C(=O)N1CCC[C@@H]1C(=O)N[C@H](CCCNC(=N)N)C(=O)N[C@H](CCCCN)C(=O)N1CCC[C@@H]1C(=O)N[C@H](CCCNC(=N)N)C(=O)N1CCC[C@@H]1C(=O)N1CCC[C@@H]1C(=O)N[C@H](CCCNC(=N)N)C(=O)N[C@H](CCCNC(=N)N)C(=O)N[C@H](CCCNC(=N)N)C(=O)N[C@H](CCC(N)=O)C(=O)N[C@H](CCCNC(=N)N)C(=O)N[C@H](CCCNC(=N)N)C(=O)N[C@H](CCCCN)C(=O)N[C@H](CCCCN)C(=O)N[C@H](CCCNC(=N)N)C(=O)NCC(=O)O)[C@H](C)O)[C@H](C)O [SEQ ID NO: 11]
number of polymorphonuclear cells (PMN) ([1]; IV administration (20 µg/kg)): 60 ± 6 | number of polymorphonuclear cells (PMN) ([1]; IVT injection (SEQ ID NO: 11: 0.2 µg/injection)): 40 ± 5 | Phosphorylation of c-Jun on Ser63 and Ser73 residues ([2]; RPE/ choroid extracts, 24 hours after intravenous or intravitreous injection): reduced | relative band intensity for phospho c-Jun in comparison to tubulin (densitometry) ([2]; RPE/ choroid, 24 hours after IV (20 µg/kg)): 0.28 ± 0.01 | relative band intensity for phospho c-Jun in comparison to tubulin (densitometry) ([2]; RPE/ choroid, 24 hours after IVT (0.2 µg/injection)): 0.35 ± 0.08 | decrease in c-Jun phosphorylation ([2]; RPE/ choroid, after IV or IVT administration, versus vehicle): approximately 3 fold
